The structures appear in SMILES notation.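 Tested at 5 concentrations; 48 h exposure; 96-well plates; endpoints linearly interpolated, else capped at highest concentration. The concentration for 50% growth inhibition is given as GI50.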 Active and inactive are the calls of the source. Cut-off read from the data, not from the text of the source: active = GI50 up to about 1.1 µM and inactive = higher.

Here are results for ten compounds from ChEMBL document CHEMBL1201862, “PubChem BioAssay data set” (2004).

Test systems include OVCAR-3; UACC-62; NCI-H460; Hs-578T; U-251; SK-OV-3; BT-549; RPMI-8226; DU-145; A498; 786-0; RXF 393; SW-620; UACC-257; HCC 2998; COLO 205; OVCAR-8; LOX IMVI; HOP-62; TK-10.
Common to all, as to test: NCI-60 cell line screen, 48 h

As to `CCOC(=O)C(=O)C(CCC(=O)c1ccc2ccccc2c1O)C(=O)OCC` (configuration not stated), the GI50 in the assay on OVCAR-3, with UACC-62, in the assay on NCI-H460, with Hs-578T, in the assay on U-251 and with SK-OV-3 was > 100 µM (inactive) throughout. The GI50 in the assay with BT-549, in the assay with RPMI-8226, in the assay on DU-145, in the assay with A498, in the assay with 786-0 and in the assay on RXF 393 was > 100 µM (inactive) throughout. The GI50 with SW-620, in the assay with UACC-257, in the assay with HCC 2998, in the assay on COLO 205, with OVCAR-8 and with LOX IMVI was > 100 µM (inactive) in each case.

Regarding `CSC1=C(C)S/C(=C\c2ccc(/C=C3\SC(C)=C(SC)S3)cc2)S1`, the GI50 is > 100 µM (inactive) in the assay with OVCAR-3; > 100 µM (inactive) in the assay on UACC-62; 33.5 µM (inactive) in the assay on HOP-62; > 100 µM (inactive) in the assay with NCI-H460; 83 µM (inactive) in the assay on Hs-578T; 79.8 µM (inactive) with U-251. Moreover, the GI50 with SK-OV-3 was > 100 µM (inactive); in the assay with BT-549, > 100 µM (inactive); with DU-145 it was > 100 µM (inactive); in the assay on A498 it was > 100 µM (inactive); in the assay with 786-0, > 100 µM (inactive); in the assay with RXF 393, 21.6 µM (inactive). In addition, the GI50 with SW-620 is > 100 µM (inactive); in the assay with UACC-257, > 100 µM (inactive); in the assay with HCC 2998, > 100 µM (inactive); in the assay on COLO 205 it was > 100 µM (inactive); in the assay with TK-10, 89.3 µM (inactive); in the assay with OVCAR-8 it was > 100 µM (inactive). Also, the GI50 with LOX IMVI was > 100 µM (inactive).

For `CC(=O)NCC1OC2COC(c3ccccc3)OC2C2N=C(c3ccccc3)OC12` (configuration not stated), the GI50 in the assay with OVCAR-3 is 76 µM (inactive); in the assay on UACC-62, 45.7 µM (inactive); in the assay with HOP-62, > 100 µM (inactive); with NCI-H460 it was 60.7 µM (inactive); with Hs-578T, 51.5 µM (inactive); in the assay on U-251, > 100 µM (inactive). In addition, the GI50 is 74.1 µM (inactive) in the assay on SK-OV-3; 68.1 µM (inactive) in the assay on BT-549; 29.4 µM (inactive) with RPMI-8226; > 100 µM (inactive) in the assay with DU-145; 37.4 µM (inactive) in the assay on A498; > 100 µM (inactive) with 786-0. For the same compound, the GI50 is 41.7 µM (inactive) with RXF 393; 80.9 µM (inactive) with SW-620; 57.5 µM (inactive) in the assay on UACC-257; 66.5 µM (inactive) with HCC 2998; 30.7 µM (inactive) with COLO 205; 58.2 µM (inactive) in the assay with TK-10. Further, the GI50 in the assay on OVCAR-8 was 57 µM (inactive); in the assay on LOX IMVI, 79.6 µM (inactive).

Regarding `O=C1CCCc2cc3c(cc21)CC1(C3)Cc2cc3c(cc2C1)C(=O)CCC3`, the GI50 with OVCAR-3 was 1.57 µM (inactive); in the assay on UACC-62, 0.531 µM (active); with HOP-62, 2.29 µM (inactive); with NCI-H460, 1.22 µM (inactive); in the assay on Hs-578T, 2.64 µM (inactive); with U-251 it was 1.64 µM (inactive). For the same compound, the GI50 is 3.52 µM (inactive) in the assay with SK-OV-3; 0.653 µM (active) in the assay on BT-549; 0.746 µM (active) in the assay with RPMI-8226; 2.18 µM (inactive) in the assay with DU-145; 5.45 µM (inactive) in the assay on A498; 2.58 µM (inactive) with 786-0. For the same compound, the GI50 in the assay with RXF 393 is 1.45 µM (inactive); in the assay on SW-620, 0.815 µM (active); in the assay on UACC-257 it was 2.28 µM (inactive); in the assay with HCC 2998 it was 2.34 µM (inactive); with COLO 205 it was 1.33 µM (inactive); with TK-10, 1.81 µM (inactive). For the same compound, the results for the GI50 with OVCAR-8 and with LOX IMVI were 3.04 µM (inactive) and 1.48 µM (inactive), respectively.

As to `CC(=O)NNC1=NN(C(C)=O)C2(S1)C(=O)Nc1ccc(C)cc12` (configuration not stated), the GI50 was > 100 µM (inactive) with OVCAR-3; 39.4 µM (inactive) in the assay on UACC-62; 35.3 µM (inactive) with HOP-62; 67 µM (inactive) in the assay with NCI-H460; 26.4 µM (inactive) in the assay with Hs-578T; 41.7 µM (inactive) in the assay on U-251. Besides, the GI50 was 47.8 µM (inactive) in the assay on BT-549; 34.8 µM (inactive) in the assay on RPMI-8226; > 100 µM (inactive) in the assay on DU-145; 38.1 µM (inactive) in the assay with A498; 84.1 µM (inactive) in the assay on 786-0; 44.9 µM (inactive) in the assay with RXF 393. Moreover, the GI50 in the assay with UACC-257 is > 100 µM (inactive); in the assay on HCC 2998, 47.1 µM (inactive); in the assay on COLO 205, > 100 µM (inactive); in the assay on TK-10 it was 38.5 µM (inactive); with OVCAR-8 it was 83.6 µM (inactive); in the assay on LOX IMVI it was > 100 µM (inactive).

For the compound `CSc1nc2c(c(N(C)C)n1)C(O)n1c(nc3ccccc31)S2` (configuration not stated), the GI50 was 29.2 µM (inactive) in the assay with OVCAR-3; > 85.9 µM (inactive) with UACC-62; 23 µM (inactive) in the assay with HOP-62; 73.5 µM (inactive) in the assay with NCI-H460; 14.1 µM (inactive) in the assay on Hs-578T; > 22.7 µM (inactive) in the assay with U-251. Besides, the GI50 is 16.5 µM (inactive) with SK-OV-3; 67 µM (inactive) in the assay with BT-549; > 100 µM (inactive) with RPMI-8226; 69.7 µM (inactive) in the assay with DU-145; > 100 µM (inactive) in the assay with A498; 26.8 µM (inactive) in the assay with 786-0. In addition, the GI50 in the assay on RXF 393 is 21.3 µM (inactive); with SW-620, > 100 µM (inactive); with UACC-257, > 100 µM (inactive); with HCC 2998 it was > 100 µM (inactive); in the assay on COLO 205, > 100 µM (inactive); in the assay on TK-10, > 53.2 µM (inactive). In addition, the results for the GI50 with OVCAR-8 and in the assay with LOX IMVI were 14.6 µM (inactive) and 9.38 µM (inactive), respectively.

`Cc1c2cc[n+](CCN3CCCCC3)cc2c(C)c2c1[nH]c1ccc(O)cc12`: the GI50 with OVCAR-3 is 6.05 µM (inactive); in the assay on UACC-62, 5.47 µM (inactive); with HOP-62, 2.32 µM (inactive); in the assay with NCI-H460, 0.418 µM (active); in the assay with Hs-578T, 2.84 µM (inactive); with U-251, 0.8 µM (active). Moreover, the GI50 in the assay on SK-OV-3 was 3.02 µM (inactive); in the assay on BT-549, 11.8 µM (inactive); in the assay on RPMI-8226 it was 2.48 µM (inactive); in the assay on DU-145, 1.89 µM (inactive); with A498, 10.6 µM (inactive); with 786-0, 2.41 µM (inactive). The GI50 with RXF 393 was 5.2 µM (inactive); with SW-620 it was 3.19 µM (inactive); in the assay with UACC-257, 13.7 µM (inactive); in the assay with HCC 2998, 3.12 µM (inactive); with COLO 205, 1.66 µM (inactive); with TK-10, 15.1 µM (inactive). The GI50 was 2.04 µM (inactive) in the assay with OVCAR-8 and 4.41 µM (inactive) with LOX IMVI.

As for `C[n+]1c(-c2ccc(/C=N/Nc3ccnc(N/N=C/c4ccc(-c5cn6ccsc6[n+]5C)cc4)n3)cc2)cn2ccsc21`, the GI50 was > 100 µM (inactive) in the assay on OVCAR-3; 25.1 µM (inactive) in the assay with UACC-62; 25.9 µM (inactive) in the assay on HOP-62; 16.9 µM (inactive) with NCI-H460; 69.5 µM (inactive) in the assay on Hs-578T; 30.9 µM (inactive) in the assay with U-251. Further, the GI50 with SK-OV-3 is > 100 µM (inactive); with BT-549 it was 36.1 µM (inactive); with RPMI-8226, 8.61 µM (inactive); in the assay with DU-145, 27.7 µM (inactive); in the assay on A498 it was 27.9 µM (inactive); in the assay on 786-0, 15.8 µM (inactive). Besides, the GI50 was 21.5 µM (inactive) in the assay on RXF 393; 33 µM (inactive) in the assay with SW-620; 25.5 µM (inactive) in the assay on UACC-257; 31.6 µM (inactive) in the assay on HCC 2998; 35.4 µM (inactive) in the assay on COLO 205; 25.8 µM (inactive) in the assay with TK-10. Moreover, the GI50 with OVCAR-8 was 28.9 µM (inactive).

In the case of `CCCCCCc1cc2cc(C(=O)NCc3ccccc3)c(=N)oc2cc1O`, the GI50 in the assay on OVCAR-3, in the assay on UACC-62, in the assay on HOP-62, with NCI-H460, with Hs-578T and with U-251 was > 100 µM (inactive) throughout. The GI50 in the assay on SK-OV-3, in the assay with BT-549, in the assay on RPMI-8226, in the assay on DU-145, with A498 and with 786-0 was > 100 µM (inactive) throughout. Moreover, the GI50 in the assay with RXF 393, in the assay with SW-620, in the assay on UACC-257, with HCC 2998, with COLO 205 and with OVCAR-8 was > 100 µM (inactive) in each case. Further, the GI50 in the assay on LOX IMVI is > 100 µM (inactive).

Consider `CC(=O)O[C@H]1C(=O)[C@@]2(C)[C@H]([C@H](OC(=O)c3cccc(C(F)(F)F)c3)[C@]3(O)C[C@H](OC(=O)[C@H](O)[C@@H](NC(=O)c4ccccc4)c4ccccc4)C(C)=C1C3(C)C)[C@]1(OC(C)=O)CO[C@@H]1C[C@@H]2O`, for which the GI50 with OVCAR-3 is < 0.0025 µM (active); in the assay with UACC-62 it was 0.00526 µM (active); with HOP-62, 0.0162 µM (active); with NCI-H460, 0.00469 µM (active); with Hs-578T, < 0.0025 µM (active); in the assay on U-251, < 0.0025 µM (active). The GI50 is 0.0288 µM (active) in the assay on SK-OV-3; 0.035 µM (active) in the assay on BT-549; < 0.0025 µM (active) in the assay with RPMI-8226; 0.00857 µM (active) in the assay on DU-145; 0.131 µM (active) in the assay with A498; 0.00439 µM (active) with 786-0. The GI50 in the assay on RXF 393 was 0.0222 µM (active); in the assay with SW-620 it was < 0.0025 µM (active); in the assay on UACC-257, 0.108 µM (active); in the assay with HCC 2998 it was 0.0111 µM (active); in the assay on COLO 205 it was < 0.0025 µM (active); in the assay on TK-10 it was 0.175 µM (active). Besides, the GI50 in the assay with OVCAR-8 was 0.00252 µM (active).
